The source of these data is PubChem BioAssay AID1259407 (Chemical Carcinogenesis Research Information System (CCRIS), 2018).

The data set relates to CCRIS mutagenicity, Ames/micronucleus/aberration tests. As to the kind of experiment: CCRIS mutagenicity studies.
[1] abbreviates: Test System: AMES SALMONELLA TYPHIMURIUM, Strain/Indicator: TA98, Metabolic Activation: NONE, Method: PREINCUBATION
Where [2] appears, read: Test System: AMES SALMONELLA TYPHIMURIUM, Strain/Indicator: TA100, Metabolic Activation: NONE, Method: PREINCUBATION
The mark [3] stands for this setting: Test System: AMES SALMONELLA TYPHIMURIUM, Strain/Indicator: TA1535, Metabolic Activation: NONE, Method: PREINCUBATION
The mark [4] stands for this setting: Test System: AMES SALMONELLA TYPHIMURIUM, Strain/Indicator: TA1537, Metabolic Activation: NONE, Method: PREINCUBATION

Entries after “also recorded” stand apart in the source; their conditions may differ. Calls of active or inactive are those of the source. How the calls were made is not given here.

On to `c1ccc2c(c1)Nc1ccccc1S2`, for which the mutagenic call was “inactive; negative” (Test System: AMES SALMONELLA TYPHIMURIUM, Strain/Indicator: TA98, Metabolic Activation: HAMSTER, LIVER, S-9, AROCLOR 1254 (10%), Method: PREINCUBATION); “inactive; negative” under setting [1]; “inactive; negative” (Test System: AMES SALMONELLA TYPHIMURIUM, Strain/Indicator: TA98, Metabolic Activation: NONE, Method: SPOT TEST); “inactive; negative” (Test System: AMES SALMONELLA TYPHIMURIUM, Strain/Indicator: TA98, Metabolic Activation: RAT, LIVER, S-9, AROCLOR 1254 (10%), Method: PREINCUBATION); “inactive; negative” (Test System: AMES SALMONELLA TYPHIMURIUM, Strain/Indicator: TA100, Metabolic Activation: HAMSTER, LIVER, S-9, AROCLOR 1254 (10%), Method: PREINCUBATION); “inactive; negative” under setting [2]. Moreover, the mutagenic call is, setting by setting: (Test System: AMES SALMONELLA TYPHIMURIUM, Strain/Indicator: TA100, Metabolic Activation: RAT, LIVER, S-9, AROCLOR 1254 (10%), Method: PREINCUBATION) “inactive; negative”; (Test System: AMES SALMONELLA TYPHIMURIUM, Strain/Indicator: TA1535, Metabolic Activation: HAMSTER, LIVER, S-9, AROCLOR 1254 (10%), Method: PREINCUBATION) “inactive; negative”; under setting [3], “inactive; negative”; (Test System: AMES SALMONELLA TYPHIMURIUM, Strain/Indicator: TA1535, Metabolic Activation: RAT, LIVER, S-9, AROCLOR 1254 (10%), Method: PREINCUBATION) “inactive; negative”; (Test System: AMES SALMONELLA TYPHIMURIUM, Strain/Indicator: TA1537, Metabolic Activation: HAMSTER, LIVER, S-9, AROCLOR 1254 (10%), Method: PREINCUBATION) “inactive; negative”; under setting [4], “inactive; negative”. Moreover, under “Test System: AMES SALMONELLA TYPHIMURIUM, Strain/Indicator: TA1537, Metabolic Activation: RAT, LIVER, S-9, AROCLOR 1254 (10%), Method: PREINCUBATION”, the mutagenic call was “inactive; negative”.

`Nc1cc(N)c(N=Nc2ccc(S(=O)(=O)O)cc2)cc1N=Nc1ccc(-c2ccc(N=Nc3ccc(C(=O)O)c(O)c3)cc2)cc1`: for the setting “Test System: AMES SALMONELLA TYPHIMURIUM, Strain/Indicator: TA98, Metabolic Activation: HAMSTER, LIVER, S-9, Method: PREINCUBATION (PRIVAL METHOD)”, the mutagenic call was “active; positive”.

As to `Nc1nc2c(ncn2CCC(CO)CO)c(=O)[nH]1`, the mutagenic call (End Point: IN VITRO CHROMOSOMAL ABERRATIONS, Test System: CHO CELLS (CHO-HSVTK), Metabolic Activation: NONE) is “active; positive (pulverized chromosome and condensation defects); concentration chosen”.

For the compound `CC(C)(C)CC(C)(C)c1ccc(O)cc1`, the mutagenic call by setting is: (End Point: In vitro chromosomal aberrations, Test System: Chinese hamster lung (CHL/IU) cells, Metabolic Activation: None) “inactive; negative. toxic at 0.04 mg/ml; also recorded: inactive; negative. toxic at 0.030 and 0.036 mg/ml”; (End Point: In vitro chromosomal aberrations, Test System: Chinese hamster lung (CHL/IU) cells, Metabolic Activation: Rat, Liver, S9, Phenobarbital and 5,6-benzoflavone) “active; positive (structural changes and ploidy). toxic at 0.06 mg/ml”; under setting [1], “inactive; negative”; (Test System: AMES SALMONELLA TYPHIMURIUM, Strain/Indicator: TA98, Metabolic Activation: RAT LIVER S-9, PHENOBARBITAL AND BETA-NAPHTHOVLAVONE, Method: PREINCUBATION) “inactive; negative”; under setting [2], “inactive; negative”; (Test System: AMES SALMONELLA TYPHIMURIUM, Strain/Indicator: TA100, Metabolic Activation: RAT LIVER S-9, PHENOBARBITAL AND BETA-NAPHTHOFLAVONE, Method: PREINCUBATION) “inactive; negative”. For the same compound, the mutagenic call (Test System: AMES SALMONELLA TYPHIMURIUM, Strain/Indicator: TA102, Metabolic Activation: NONE, Method: PREINCUBATION) is “inactive; negative”; the mutagenic call (Test System: AMES SALMONELLA TYPHIMURIUM, Strain/Indicator: TA102, Metabolic Activation: RAT LIVER S-9, PHENOBARBITAL AND BETA-NAPHTHOFLAVONE, Method: PREINCUBATION) is “inactive; negative”; the mutagenic call (Test System: AMES SALMONELLA TYPHIMURIUM, Strain/Indicator: TA104, Metabolic Activation: NONE, Method: PREINCUBATION) is “inactive; negative”; the mutagenic call (Test System: AMES SALMONELLA TYPHIMURIUM, Strain/Indicator: TA104, Metabolic Activation: RAT LIVER S-9, PHENOBARBITAL AND BETA-NAPHTHOFLAVONE, Method: PREINCUBATION) is “inactive; negative”; the mutagenic call under setting [3] was “inactive; negative”; the mutagenic call (Test System: AMES SALMONELLA TYPHIMURIUM, Strain/Indicator: TA1535, Metabolic Activation: RAT LIVER S-9, PHENOBARBITAL AND BETA-NAPHTHOFLAVONE, Method: PREINCUBATION) was “inactive; negative”. In addition, the mutagenic call is “inactive; negative” under setting [4]; “inactive; negative” (Test System: AMES SALMONELLA TYPHIMURIUM, Strain/Indicator: TA1537, Metabolic Activation: RAT LIVER S-9, PHENOBARBITAL AND BETA-NAPHTHOFLAVONE, Method: PREINCUBATION); “inactive; negative” (Test System: E. COLI, Strain/Indicator: WP2UVRA/PKM101, Metabolic Activation: NONE, Method: PREINCUBATION); “inactive; negative” (Test System: E. COLI, Strain/Indicator: WP2UVRA/PKM101, Metabolic Activation: RAT LIVER S-9, PHENOBARBITAL AND BETA-NAPHTHOFLAVONE, Method: PREINCUBATION); “inactive; negative” (Test System: E. COLI, Strain/Indicator: WP2UVRA, Metabolic Activation: NONE, Method: PREINCUBATION); “inactive; negative” (Test System: E. COLI, Strain/Indicator: WP2UVRA, Metabolic Activation: RAT LIVER S-9, PHENOBARBITAL AND BETA-NAPHTHOFLAVONE, Method: PREINCUBATION).

For `N#Cc1cccc2c([N+](=O)[O-])cccc12`, the mutagenic call (Test System: AMES SALMONELLA TYPHIMURIUM, Strain/Indicator: TA100, Metabolic Activation: NONE, Method: STANDARD PLATE) is “active; positive” and the mutagenic call (Test System: AMES SALMONELLA TYPHIMURIUM, Strain/Indicator: TA100, Metabolic Activation: S-9 MIX, Method: STANDARD PLATE) is “active; positive”.

Take `[N-]=[N+]=NCCC(N)C(=O)O` (stereo unspecified): the mutagenic call (Test System: AMES SALMONELLA TYPHIMURIUM, Strain/Indicator: TA1530, Metabolic Activation: NONE, Method: STANDARD PLATE) is “active; positive”.
